{"source": "paper PMC6017062", "about": "“Probing the Inhibitor versus Chaperone Properties of sp^2-Iminosugars towards Human β-Glucocerebrosidase: A Picomolar Chaperone for Gaucher Disease” (Molecules : A Journal of Synthetic Chemistry and Natural …, 2018)", "key": {"[1]": {"biological_target": "T1, α-mannosidase from Jack bean (α-Manase) (Canavalia ensiformis, UniProt C0HJB3)", "T1 construct": "purchased", "T1 sequence (C0HJB3 1-981)": "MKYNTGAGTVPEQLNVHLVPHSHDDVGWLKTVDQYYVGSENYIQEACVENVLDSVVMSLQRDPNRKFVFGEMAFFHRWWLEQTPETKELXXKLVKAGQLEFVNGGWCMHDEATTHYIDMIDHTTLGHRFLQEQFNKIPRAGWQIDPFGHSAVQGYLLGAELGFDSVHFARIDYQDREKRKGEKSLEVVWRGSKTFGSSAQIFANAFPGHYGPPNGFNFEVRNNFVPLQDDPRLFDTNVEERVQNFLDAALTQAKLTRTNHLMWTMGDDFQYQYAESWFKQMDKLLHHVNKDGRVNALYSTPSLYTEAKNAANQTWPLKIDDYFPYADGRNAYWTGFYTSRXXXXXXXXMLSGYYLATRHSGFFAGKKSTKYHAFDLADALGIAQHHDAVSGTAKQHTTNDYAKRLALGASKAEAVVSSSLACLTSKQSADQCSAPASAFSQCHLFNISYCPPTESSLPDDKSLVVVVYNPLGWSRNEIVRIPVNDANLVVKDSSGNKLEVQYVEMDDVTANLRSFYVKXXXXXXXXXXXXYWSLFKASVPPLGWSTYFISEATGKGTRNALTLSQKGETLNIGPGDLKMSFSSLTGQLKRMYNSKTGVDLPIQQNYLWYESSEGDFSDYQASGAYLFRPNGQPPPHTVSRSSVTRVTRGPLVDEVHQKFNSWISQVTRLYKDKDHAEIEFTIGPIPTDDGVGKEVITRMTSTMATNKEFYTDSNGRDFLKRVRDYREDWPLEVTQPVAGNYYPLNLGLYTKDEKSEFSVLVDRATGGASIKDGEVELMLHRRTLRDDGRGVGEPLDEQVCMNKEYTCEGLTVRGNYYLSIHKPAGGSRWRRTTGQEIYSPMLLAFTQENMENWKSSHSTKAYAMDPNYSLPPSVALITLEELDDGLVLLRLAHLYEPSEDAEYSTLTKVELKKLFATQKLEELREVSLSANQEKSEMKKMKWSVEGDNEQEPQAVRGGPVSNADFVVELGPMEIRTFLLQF", "experiment": "Commercial glycosidase inhibition: α-mannosidase from Jack bean (α-Manase)", "format": "biochemical", "conditions": "mean ± SD, three determinations; competitive; n.i. = no inhibition detected at 1 mM", "source_text": "(§1) We first evaluated the inhibitory properties of the new nonreducing mono- and bicyclic sp^2-iminosugars 4–15 against a panel of commercial glycosidases that included the α-glucosidases maltase (yeast maltase; α-Glcase1) and isomaltase (α-Glcase2) from Saccharomyces cerevisiae and amyloglucosidase (α-Glcase3) from Aspergillus niger, the β-glucosidases from almonds (β-Glcase1) and bovine liver (β-Glcase2), the α-galactosidase from green coffee beans (α-Galase), the β-galactosidase from Escherichia coli (β-Galase), and the α-mannosidase from Jack bean (α-Manase).\n(§2) Inhibition constant (Ki) values were determined by spectrophotometrically measuring the residual hydrolytic activities of the glycosidases against the respective o- (for β-galactosidase from E. coli) or p-nitrophenyl α- or β-D-glycopyranoside (for other glycosidases) in the presence of the iminosugars. Each assay was performed in phosphate buffer or phosphate-citrate buffer (for α- or β-mannosidase and amyloglucosidase) at the optimal pH for the enzymes. The reactions were initiated by addition of the enzyme to a solution of the substrate in the absence or presence of various inhibitor concentrations. The mixture was incubated for 10–30 min at 37 °C or 55 °C (for amyloglucosidase) and the reaction was quenched by addition of 1 M Na2CO3. Reaction times were appropriate to obtain 10–20% conversion of the substrate in order to achieve linear rates. The absorbance of the resulting mixture was determined at 405 nm. Approximate value of Ki was determined from the slope of Dixon plots using a fixed concentration of substrate (around the Km value for the different glycosidases) and various concentrations of inhibitor. Full Ki determinations and enzyme inhibition mode were determined from the slope of Lineweaver–Burk plots and double reciprocal analysis."}, "[2]": {"biological_target": "β-glucosidase from almonds (β-Glcase1)", "experiment": "Commercial glycosidase inhibition: β-glucosidase from almonds (β-Glcase1)", "format": "biochemical", "conditions": "mean ± SD, three determinations; competitive; n.i. = no inhibition detected at 1 mM", "source_text": "as §1, §2"}, "GCase": {"biological_target": "T2, GCase (Homo sapiens, UniProt P04062)", "T2 construct": "endogenous in cells; host or cells: normal human skin fibroblasts", "T2 sequence (P04062 40-536)": "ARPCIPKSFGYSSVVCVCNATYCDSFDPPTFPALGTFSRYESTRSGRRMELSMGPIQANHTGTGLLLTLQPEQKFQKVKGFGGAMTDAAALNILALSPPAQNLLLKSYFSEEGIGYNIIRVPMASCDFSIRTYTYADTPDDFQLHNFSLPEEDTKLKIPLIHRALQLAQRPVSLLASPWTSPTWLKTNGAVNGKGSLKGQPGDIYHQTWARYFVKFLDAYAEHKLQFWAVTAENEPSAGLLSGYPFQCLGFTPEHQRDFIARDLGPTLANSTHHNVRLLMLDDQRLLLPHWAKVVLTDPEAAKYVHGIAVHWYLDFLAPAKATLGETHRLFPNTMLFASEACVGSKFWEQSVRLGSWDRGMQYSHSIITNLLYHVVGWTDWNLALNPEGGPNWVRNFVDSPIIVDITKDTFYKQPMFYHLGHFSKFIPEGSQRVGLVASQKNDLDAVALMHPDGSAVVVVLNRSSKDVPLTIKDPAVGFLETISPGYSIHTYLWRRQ", "experiment": "GCase activity in cultured healthy human fibroblasts", "format": "cell-based", "procedure": "For that purpose, cells were cultured for 5 days in the absence and in the presence of various concentrations of the compounds, then lysed, and the enzyme activity was determined using 4-methylumbelliferyl β-D-glucopyranoside as substrate. Higher GCase activities in the lysate indicate that larger amounts of the protein are present and that it is functional.\nNormal and Gaucher disease patients’ skin fibroblasts were cultured in Dulbecco modified Eagle’s medium (WAKO, Richmond, VA, USA) supplemented with 10% fetal bovine serum (Nichirei Biosci. Inc., Tokyo, Japan) at 37 °C in 5% CO2. For measurement of chaperone activities, fibroblasts were plated onto 35 mm dishes at 50,000 cells per dish. After 24 h incubation, the medium with the indicated concentrations of compound was applied and cells were cultured for 96 h. Then, the lysates in 0.1% Triton-X100/distilled H2O were collected from the cells and assayed for lysosomal GCase as described above. To measure the cytotoxic effect of the compounds, normal human fibroblasts were plated onto 35 mm dishes at 15,000 cells per dish and incubated overnight. Then, the medium was changed with or without compounds. After 24 h incubation, the supernatant of the cells was collected and measured by the lactate dehydrogenase assay (WAKO, Richmond, VA, USA). All the cell lines used were tested for mycoplasma contamination before conducting the chaperone and toxicity assays."}}}
{"smiles": "CCCCCCCCN=C1SCC2C(O)C(O)C(O)CN12", "note": "(stereo not drawn) [Compound 4, 1-Deoxy-6-thio-5-N,6-S-(N′-octyliminomethylidene)nojirimycin]", "values": [{"measurement": "Ki α-Manase", "setting": "[1]", "value": "n.i."}, {"measurement": "Ki", "setting": "[2]", "value": 45, "unit": "nM"}, {"measurement": "GCase activity in lysates of healthy human fibroblasts at higher concentrations", "setting": "GCase", "value": "significantly inhibited"}, {"measurement": "GCase activity in lysates of healthy human fibroblasts at 20 μM", "setting": "GCase; 20 μM, 5 days culture", "value": "virtually full inhibition"}]}
